Entries after “also recorded” stand apart in the source; their conditions may differ.
How the values were obtained:
COX-2 mRNA [1] = experiment: RT-PCR of COX-2 mRNA in LPS and fMLP-treated U937-derived macrophages; type: cell-based, human; details: 10 μM each; for inhibition of the mRNA expression of COX-2: 2 h pretreatment before LPS 1 μg/ml priming or fMLP 10 μM stimulation, FIGS. 4 A-C; for order of suppression potency of the COX-2 mRNA expression induced by LPS and fMLP: FIG. 4C
Procedure: The human monocyte line U937 was obtained from the cell bank in Shanghai Institute of Biological Sciences, Chinese Academy of Sciences. Monocytic cells of 3-4 passages were grown to confluence in RPMI 1640 (GIBCO-BRL, Glasgow, Scotland) containing 10% fetal bovine serum at 37° C. in a 5% CO2 humidified incubator during all experimental procedures. Macrophages were pretreated with procyanidins B1 dimer, B2 dimer, A1 dimer, and flavanols (−)-catechin and (+)-epicatechin (each 10) for 2 h before LPS (1 μg·ml^−1) priming or fMLP (10 μM) stimulation for 2 h. The normal macrophages without LPS or fMLP treatment were considered as controls. They were then differentiated to macrophages in the medium containing 100 nM PMA and allowed to adhere for 48 h, after which they were fed with PMA-free medium and cultured for 24 h prior to use. Cells from different groups were collected and total RNA was prepared with TRI-REAGENT-LS extraction kit The expression of RNAs was determined by RT-PCR. Complementary DNA was created from RNA using TrueScript MMLV reverse transcriptase and oligo d (T) 18 primers. 5 μg RNA was included in each reaction.
The data are presented as means±SD and compared with ANOVA and least significant difference test using SPSS statistical program. The level of the statistical significance was set at P<0.05.

[2] = molecular target: T1, recombinant human COX-2 enzyme (Homo sapiens, UniProt P35354); experiment: Determination of COX-2 enzyme activity (PGE2 RIA, baculovirus-expressed enzyme in sf9 cells); type: biochemical; details: baculovirus-expressed human recombinant COX-2; 10 μmol/L arachidonic acid; FIG. 3
T1 construct: made in house; host or cells: sf9 insect cells infected with hCOX-2 recombinant baculovirus
T1 sequence (P35354 18-604): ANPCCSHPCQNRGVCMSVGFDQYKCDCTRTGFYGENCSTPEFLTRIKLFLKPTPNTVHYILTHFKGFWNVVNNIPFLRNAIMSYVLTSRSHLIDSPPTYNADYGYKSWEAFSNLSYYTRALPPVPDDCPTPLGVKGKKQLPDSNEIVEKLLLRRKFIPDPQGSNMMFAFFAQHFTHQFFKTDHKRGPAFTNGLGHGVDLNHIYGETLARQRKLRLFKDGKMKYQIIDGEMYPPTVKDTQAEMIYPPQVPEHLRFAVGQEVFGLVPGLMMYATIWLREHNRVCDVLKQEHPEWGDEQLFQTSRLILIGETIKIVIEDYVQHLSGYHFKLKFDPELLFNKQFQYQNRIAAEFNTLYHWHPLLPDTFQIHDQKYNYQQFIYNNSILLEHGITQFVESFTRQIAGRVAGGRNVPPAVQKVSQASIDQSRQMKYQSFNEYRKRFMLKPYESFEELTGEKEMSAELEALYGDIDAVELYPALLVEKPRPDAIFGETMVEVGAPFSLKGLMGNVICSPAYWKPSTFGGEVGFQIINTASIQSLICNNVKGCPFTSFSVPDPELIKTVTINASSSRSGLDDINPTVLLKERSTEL
Procedure: The effect of procyanidin dimer B2 and NS398, a selective COX-2 inhibitor (positive control), on the activity of COX-2 was measured using baculovirus-expressed recombinant human COX-2 enzyme as previously described (Zhang et al., Acta. Pharmacol. Sin. 25(8):1000-1006, 2004). Briefly, 24 h after infecting sf9 cells with hCOX-2 recombinant baculovirus, the cells were collected and washed in HHBS. The assays were performed as follows. One milliliter of Hank's solution containing 1×10^5 COX-2 expressing cells plus 9×10^5 uninfected sf9 cells was dispensed per well of 24-well polypropylene plates. B2, NS398, or DMSO vehicle (10 μL) was added to the appropriate well containing the cell suspension. Following a 15-min drug or DMSO preincubation at 37° C., the cells were challenged with 10 μmol/L arachidonic acid
(Sigma) in ethanol and incubated for 10 min. Reactions were terminated by the addition of 100 μL of 1 mol/L HCl, neutralized with 100 μL of 1 mol/L NaOH. The cells were pelleted for 10 min at 300×g and the levels of PGE2 in the supernatant were determined by a PGE2-specific RIA (Beijing East Asia Institute of Immunology). The concentration of PGE2 was then determined by interpolation from a standard curve and inhibition calculated by comparison of the PGE2 production by drug-treated cells (B2 and NS398) with that of DMSO-treated cells.

COX-2 protein expression = experiment: Western blot of LPS-induced COX-2 protein expression in THP-1 cells; type: cell-based, human; details: 50 μM, 30 min pretreatment with B2 followed by 4 hour LPS treatment
Procedure: (§1) Human monocytic THP-1 cells from acute monocytic leukemia (American Type Culture Collection, Manassas, Va.) in RPMI 1640 medium (Life Technologies, Rockville, Md.), with 4.5 g/L glucose, 10 nM HEPES, 1 mM sodium pyruvate, and 50 μM 2-ME supplemented with 10% FBS, were cultured under a humidified 5% CO2 atmosphere at 37° C. For differentiation, THP-1 cells were plated at 1×10^6 cells/ml in the medium containing 100 nM PMA and allowed to adhere for 48 h, after which they were fed with PMA-free medium and cultured for 24 h prior to use. LPS was used at concentration of 1 μg/ml in the medium. sf9 cells were cultured in monolayer at 28° C. in Grace's supplemented medium with 10% heat-inactivated fetal bovine serum.
5×10^6 cells were resuspended in modified RIPA lysis buffer (Tris-HCl 50 mM, pH 7.4 NaCl 150 mM, EDTA 1 mM, Na-deoxycholate 0.25%, NP-40 1%, PMSF 1 mM, Na3VO4 1 mM, NaF 1 mM, Aprotinin 10 μg/ml, leupeptin 5 μg/ml, pepstatin 5 μg/ml), and lysed cells on ice for 45 min. The lysate was centrifuged at 14,000×g for 15 min to sediment the particulate materials. The protein concentration of the supernatant was measured by the method of Lowry (Lowry et al., J. Biol. Chem. 193:265-267, 1951). Samples were electrophoresed in SDS/PAGE gels and separated proteins were transferred onto a PVDF membrane. […]

COX-2 mRNA [3] = experiment: Real-time quantitative RT-PCR of COX-2 mRNA in LPS-treated differentiated THP-1 cells; type: cell-based, human; details: differentiated THP-1 cells exposed to dimer B2 and LPS 1 μg/ml for 4 h; FIG. 1
Procedure: as §1
Total RNA was extracted from macropahges with TRIzol reagent (Invitrogen Corporation, Carlsbad, Calif.). Real-time quantitative RT-PCR was performed using the Opticon 2 (MJ Research Inc., Waltham, Mass.). Sequence specific PCR primers for COX-2 [accession no. NM_000963; forward primer: 5′-[…]-3′ [SEQ ID NO: 1]; reverse primer: 5′-[…]-3′ [SEQ ID NO: 2]] and GAPDH [accession no. NM_002046; forward primer: 5′-[…]-3′ [SEQ ID NO: 3]; reverse primer: 5′-[…]-3′ [SEQ ID NO: 4]] were designed using the Primer Premier software version 5.00. Standard curves were run on the same plate and the relative standard curve method was used to calculate the relative gene expression. […]

Compound	inhibition of the mRNA expression of COX-2 (COX-2 mRNA [1])	order of suppression potency of the COX-2 mRNA expression induced by LPS and fMLP (COX-2 mRNA [1])	effect on PGE2 synthesis (COX-2 enzyme activity) [2]	LPS-induced COX-2 protein expression (COX-2 protein expression; FIG. 2)	LPS-induced COX-2 protein expression (COX-2 protein expression; FIG. 2, listed as 132)	levels of mRNA for COX-2 (COX-2 transcription) (COX-2 mRNA [3])
Oc1cc(O)c2c(c1)O[C@@H](c1ccc(O)c(O)c1)[C@@H](O)C2 [(+)-epicatechin]	significant inhibition	(−)-catechin, (+)-epicatechin >B1, B2>A1				
Oc1cc(O)c2c(c1)OC1(c3ccc(O)c(O)c3)Oc3cc(O)c4c(c3C2C1O)OC(c1ccc(O)c(O)c1)C(O)C4 (centres unmarked) [A1, reference compound]	significant inhibition	(−)-catechin, (+)-epicatechin >B1, B2>A1				
Oc1cc(O)c2c(c1)O[C@H](c1ccc(O)c(O)c1)[C@H](O)[C@H]2c1c(O)cc(O)c2c1O[C@H](c1ccc(O)c(O)c1)[C@@H](O)C2 [B1, (−)-epicatechin-(4β-8)-(+)-catechin]	significant inhibition	(−)-catechin, (+)-epicatechin >B1, B2>A1				
Oc1cc(O)c2c(c1)O[C@H](c1ccc(O)c(O)c1)[C@H](O)[C@H]2c1c(O)cc(O)c2c1O[C@H](c1ccc(O)c(O)c1)[C@H](O)C2 [B2, (−)-epicatechin-(4β-8)-(−)-epicatechin]	significant inhibition	(−)-catechin, (+)-epicatechin >B1, B2>A1	not inhibited; also recorded: no inhibitory effect	inhibited	inhibitory effect	inhibitory effect; also recorded: reduced in a concentration-dependent manner
(−)-catechin	significant inhibition	(−)-catechin, (+)-epicatechin >B1, B2>A1				

— patent publication US20090286869A1, “Flavanols and B-Type Procyanidins and Inflammation” (Mars, Inc., priority 2005, published 2009)
